Here are results for 41 compounds from patent US8304447B2, “2-acylaminopropoanol-type glucosylceramide synthase inhibitors” (Genzyme Corporation, priority 2007, dated 2012).

The subject of the assay is GM3. Description: GM3 Elisa assay. It is filed as cell-based. The conditions noted are these: B16-FO cells, read-out: IC50_uM_Mean. In short, it runs like this:
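Murine B16-FO melanoma cells attached 6 h on collagen, then exposed to compounds for 2 days at 37 °C. After formaldehyde fixation, cell-surface GM3 (NeuAc) was detected by anti-GM3 IgM and peroxidase anti-mouse IgM with Quantablu fluorescence (Ex 325/Em 420).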

Setting [1] is: 48 h, Table 2, 2 days incubation.
[2] abbreviates: 48 h, Table 1, 2 days incubation.

Like-named read-outs stand apart in the source and are kept apart here.

`CCCCCCCC(=O)N[C@H](CC1CC(OCCC)C1)[C@H](O)c1ccc2c(c1)OCCO2` (some centres unmarked) [Compound 596]: the IC50 (Table 3 (IC 50 Values)) was 3 to 10 µM.
As for `O=C(CCCn1cccn1)N[C@H](CN1CCCC1)[C@H](O)c1ccc2c(c1)OCCO2` [Compound 643], the IC50 (Table 3 (IC 50 Values)) was 1 to 3 µM.
Still for that read-out and setting: to `COc1ccc(C(=O)CCCCCC(=O)N[C@H](CN2CCC(F)(F)CC2)[C@H](O)c2ccc3c(c2)OCCO3)cc1` [Compound 625] belongs 3 to 10 µM; to `COc1ccc(OCCC(=O)N[C@H](CN2CCCC2)[C@H](O)c2ccc(OC)c(F)c2)cc1` [Compound 341], not above 0.1 µM.
For `CCCCCCCCCCCCCCCC(=O)N[C@H](CN1CCOCC1)[C@H](O)c1ccccc1` [Compound 317], the IC50 under setting [1] was 0.1 to 1 µM.
With `CC(=O)c1ccc(OCCCC(=O)N[C@H](CN2CCCC2)[C@H](O)c2ccc(OC(C)C)cc2)cc1` [Compound 724], the IC50 (Table 3 (IC 50 Values)) was in the range of 0.1 to 1 µM.
The same measure, in the same setting: the value for `COc1ccc(C(=O)CCCC(=O)N[C@H](CN2CCCC2)[C@H](O)c2ccc(-c3ccccc3)cc2)cc1` [Compound 696] was 1 to 3 µM; that for `COc1ccc(C(=O)CCCCCC(=O)N[C@@H](CO)C(O)c2ccc3c(c2)OCCO3)cc1` (some centres unmarked) [Compound 477] was 3 to 10 µM; that for `CCCCCCCC(=O)N[C@H](CN1CCCC1)[C@H](O)c1ccc(CCOC)cc1` [Compound 478] was 0.1 to 1 µM.
Regarding `CC(C)Oc1ccc(C(=O)CCCC(=O)N[C@H](CN2CCCC2)[C@H](O)c2ccc3c(c2)OCCO3)cc1` [Compound 284, N-((1R,2R)-1-(2,3-dihydrobenzo[β][1,4]dioxin-6-yl)-1-hydroxy-3-(pyrrolidin-1-yl)propan-2-yl)-5-(4-isopropoxyphenyl)-5-oxopentanamide], the IC50 under setting [1] is not above 0.1 µM.
As to `COc1ccc(OCCC(=O)N[C@H](CN2CC(F)(F)C2)[C@H](O)c2ccc3c(c2)OCCO3)cc1` [Compound 622], the IC50 (Table 3 (IC 50 Values)) fell in the range of 3 to 10 µM.
On the same count and under the same terms, to `COCCOCCOc1ccc([C@@H](O)[C@@H](CN2CCCC2)NC(=O)CCOc2ccc(OC)cc2)cc1` [Compound 713] belongs 0.1 to 1 µM.
Regarding `O=C(CCCS(=O)(=O)C1CCCCC1)N[C@H](CN1CCCC1)[C@H](O)c1ccc2c(c1)OCCO2` [Compound 561], the IC50 (Table 3 (IC 50 Values)) fell in the range of 3 to 10 µM.
The same measure, in the same setting: the value for `CCCCOc1ccc(CC(CN2CCCC2)NC(=O)CCCCC(=O)c2ccc(OC)cc2)cc1` (centres unmarked) [Compound 589] was 1 to 3 µM; that for `COc1ccc(C(=O)CCCCCC(=O)N[C@H](CN2CC[C@H](OC)C2)[C@H](O)c2ccc3c(c2)OCCO3)cc1` [Compound 583] was 3 to 10 µM; that for `O=C(CCOc1ccc(F)cc1)N[C@H](CN1CC[C@@H](F)C1)[C@H](O)c1ccc2c(c1)OCCO2` [Compound 568] was 0.1 to 1 µM.
Same read-out and setting: to `COc1ccc(OCCC(=O)N(Cc2cccc(-c3noc(C)n3)c2)[C@H](CN2CCCC2)[C@H](O)c2ccc(O)cc2)cc1` [Compound 718] belongs 3 to 10 µM; to `CCCCCCOc1ccc([C@@H](O)[C@@H](CN2CC[C@H](O)C2)NC(=O)CCOc2ccc(Cl)cc2)cc1` [Compound 729], not above 0.1 µM; to `COc1ccc(C(=O)CCCCC(=O)N[C@H](CN2CCCC2)[C@H](O)c2ccc(OCCCOc3ccc(F)cc3)cc2)cc1` [Compound 431], not above 0.1 µM.
Still for that read-out and setting: to `COc1ccc(C(=O)CCCCC(=O)N[C@H](CN2CCCC2)[C@H](O)c2ccc(OCCCOc3ccc(C)cc3)cc2)cc1` [Compound 430] belongs not above 0.1 µM; to `O=C(Cc1ccc(OC(F)(F)F)cc1)N[C@H](CN1CCCC1)[C@H](O)/C=C/c1ccccc1` [Compound 392], 3 to 10 µM; to `COc1cc([C@@H](O)[C@@H](CN2CCCC2)NC(=O)CCCCCC(C)=O)cc(OC)c1OC` [Compound 671], 3 to 10 µM.
`N#CCCCCCC(=O)N[C@H](CN1CCCC1)[C@H](O)c1ccc2c(c1)OCCO2` [Compound 632]: the IC50 (Table 3 (IC 50 Values)) lay in the range of 3 to 10 µM.
On the same count and under the same terms, to `COCCOc1ccc(C(=O)CCCC(=O)N[C@H](CN2CCCC2)[C@H](O)c2ccc(OC(C)C)cc2)cc1` [Compound 451] belongs 0.1 to 1 µM; to `O=C(CCCOn1nnc2ccccc21)N[C@H](CN1CCCC1)[C@H](O)c1ccc2c(c1)OCCO2` [Compound 642], 0.1 to 1 µM; to `CCCCCCCC(=O)N[C@H](CN1C(C)CCCC1C)[C@H](O)c1ccc2c(c1)OCCO2` (some centres unmarked) [Compound 595], 3 to 10 µM.
On the same count and under the same terms, to `COc1ccc(OCCC(=O)N[C@@H](CN2CCCC2)[C@@H](O)c2ccc3c(c2)OCCO3)cc1` [Compound 674] belongs 3 to 10 µM.
Take `O=C(N[C@H](CN1CCCC1)[C@H](O)c1ccc2c(c1)OCCO2)C(=O)c1ccccc1` [Compound 31, N-((1R,2R)-1-(2,3-dihydrobenzoall [1,4]dioxin-6-yl)-1-hydroxy-3-(pyrrolidin-1-yl)propan-2-yl)-2-oxo-2-phenylacetamide]: under setting [2], the IC50 lay in the range of 0.1 to 1 µM.
The same measure, in the same setting: to `O=C(NCc1ccc(F)cc1)N[C@H](CN1CCCC1)[C@H](O)c1ccc2c(c1)OCCO2` [Compound 17, 1-((1R,2R)-1-(2,3-dihydrobenzo[β][1,4]dioxin-6-yl)-1-hydroxy-3-(pyrrolidin-1-yl)propan-2-yl)-3-(4-fluorobenzyl)urea] belongs not above 0.1 µM; to `O=C(CCCCCC(=O)c1ccc(Cl)cc1)N[C@H](CN1CCCC1)[C@H](O)c1ccc2c(c1)OCCO2` [Compound 159, 7-(4-chlorophenyl)-N-((1R,2R)-1-(2,3-dihydrobenzo[β][1,4]dioxin-6-yl)-1-hydroxy-3-(pyrrolidin-1-yl)propan-2-yl)-7-oxoheptanamide], not above 0.1 µM; to `O=C(Nc1ccc(OC(F)(F)F)cc1)N[C@H](CN1CCCC1)[C@H](O)c1ccc2c(c1)OCCO2` [Compound 82, 1-((1R,2R)-1-(2,3-dihydrobenzo[β][1,4]dioxin-6-yl)-1-hydroxy-3-(pyrrolidin-1-yl)propan-2-yl)-3-(4-(trifluoromethoxy)phenyl)urea], not above 0.1 µM.
Regarding `COc1ccc(OCCC(=O)N[C@H](CN2CCCC2)[C@H](O)c2ccc(OC)c(C)c2)cc1` [Compound 391], where the note is “Table 3 (IC 50 Values)”, the IC50 fell in the range of 0.1 to 1 µM.
Same read-out and setting: to `COc1ccc(OCCC(=O)N[C@H](CN2CCC[C@@H]2C)[C@@H](O)c2ccc3c(c2)OCCO3)cc1` [Compound 526] belongs 0.1 to 1 µM.
The same measure, in the same setting: to `CC(O)(CCCCCC(=O)N[C@H](CN1CCCC1)[C@H](O)c1ccc2c(c1)OCCO2)C1CCCCC1` (some centres unmarked) [Compound 641] belongs not above 0.1 µM; to `O=C(CCCCCC1CCOCC1)N[C@H](CN1CC[C@@H](F)C1)C(O)c1cccc(OCc2ccccc2)c1` (some centres unmarked) [Compound 574], 0.1 to 1 µM; to `COc1ccc(C(=O)CCCCC(=O)N(CC2CCCC2)[C@H](CN2CCCC2)[C@H](O)c2ccc(O)cc2)cc1` [Compound 428], 3 to 10 µM.
Same read-out and setting: the value for `COc1ccc(C(=O)CCCCCC(=O)N[C@H](CN2CC[C@@H](F)C2)[C@H](O)c2ccc3c(c2)OCCO3)cc1` [Compound 531] was not above 0.1 µM; that for `COc1ccc(C(=O)CCCCC(=O)N[C@H](CN2CCCC2)[C@H](O)c2ccc(OCCC(C)C)cc2)cc1` [Compound 438] was not above 0.1 µM.
For the compound `CCCCCCCC(=O)N[C@@H](CN1CCCC1)[C@@H](O)c1ccc2c(c1)OCCO2` [Compound 677], the IC50 (Table 3 (IC 50 Values)) is 3 to 10 µM.
As to `CCCCOc1ccc([C@@H](O)[C@@H](CN2CC[C@H](O)C2)NC(=O)CCCCC(=O)c2ccc(F)cc2)cc1` [Compound 657], under “Table 3 (IC 50 Values)”, the IC50 fell in the range of 0.1 to 1 µM.
The same measure, in the same setting: the value for `COc1ccc(C(=O)CCCCC(=O)N[C@H](CN2CCCC2)[C@H](O)c2ccc(OCCOc3ccc(C#N)cc3)cc2)cc1` [Compound 364] was not above 0.1 µM.
